This note sets out measurements from patent publication US10934298B2, “Substituted pyrazolo[1,5-a]pyrimidines for the treatment of medical disorders” (BIAL—BioTech Investments, Inc., priority 2016, dated 2021).

In this test the target is T1, glucocerebrosidase (Gcase) (Homo sapiens, UniProt P04062).
T1 construct: micellar solution containing 10 nM GCase and 100 nM saposin C
T1 sequence (P04062 40-536): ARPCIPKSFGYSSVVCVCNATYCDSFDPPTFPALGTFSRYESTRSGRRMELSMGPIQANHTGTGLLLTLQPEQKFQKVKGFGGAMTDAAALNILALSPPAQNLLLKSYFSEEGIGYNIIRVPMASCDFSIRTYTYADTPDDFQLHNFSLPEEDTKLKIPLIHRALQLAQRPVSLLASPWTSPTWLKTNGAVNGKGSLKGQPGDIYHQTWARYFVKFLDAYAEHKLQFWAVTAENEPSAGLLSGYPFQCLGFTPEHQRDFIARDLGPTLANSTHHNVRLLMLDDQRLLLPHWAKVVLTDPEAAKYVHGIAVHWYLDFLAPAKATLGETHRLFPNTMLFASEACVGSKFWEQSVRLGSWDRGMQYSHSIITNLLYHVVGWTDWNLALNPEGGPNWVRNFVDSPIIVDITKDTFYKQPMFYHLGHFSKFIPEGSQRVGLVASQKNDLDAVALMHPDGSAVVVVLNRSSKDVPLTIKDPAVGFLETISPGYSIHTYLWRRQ
In words: Glucocerebrosidase (Gcase) activation assay with 4-methylumbelliferyl-beta-D-glucopyranoside substrate, saposin C and phosphatidylserine/triton micelles, fluorescence readout. The class given is biochemical. As to conditions: for Percent Gcase Activation, 0.1 μM Test Compound: test compound at 0.1 μM; for Percent Gcase Activation, 1 μM Test Compound: test compound at 1.0 μM. In a few lines: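 Readout is endpoint fluorescence (ex 365, em 440 nm) after glycine pH 12.5 stop of a 15-min room-temperature reaction. Enzyme mix: GCase 10 nM plus saposin C 100 nM in 0.37 mol % PS/0.32 mM triton micelles, pH 4.7, compound pre-incubated 30 min; substrate solution 2 mM before 1:1 mixing. Tested at 1.0/0.1 μM, then 3-fold, 8-point series up to 5 μM.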

As to `Cc1cc(-c2cccc(Cl)n2)nc2c(C(=O)NC(C3CC3)C(F)(F)F)cnn12` (centres unmarked) [III-237], the “Percent Gcase Activation, 0.1 μM Test Compound” value is recorded as “*** (greater than 20% Gcase activation)” and the “Percent Gcase Activation, 1 μM Test Compound” value is given as “+++ (Gcase activation greater than 60%)”.

With `CCc1cc(N2CCOCC2)nc2c(C(=O)NC(C3CC3)C(F)(F)F)cnn12` (centres unmarked) [III-238], the “Percent Gcase Activation, 0.1 μM Test Compound” value was “* (less than 10% Gcase activation)” and the “Percent Gcase Activation, 1 μM Test Compound” value is given as “+++ (Gcase activation greater than 60%)”.

Regarding `Cc1cc(-c2ccon2)nc2c(C(=O)NC(C3CC3)C(F)(F)F)cnn12` (centres unmarked) [III-239], the “Percent Gcase Activation, 0.1 μM Test Compound” value is listed as “** (Gcase activation in the range of 10% up to 20%)” and the “Percent Gcase Activation, 1 μM Test Compound” value was “+++ (Gcase activation greater than 60%)”.

Turning to `Cc1cc(-c2ccon2)nc2c(C(=O)N[C@H](C3CC3)C(F)(F)F)cnn12` [III-240], the “Percent Gcase Activation, 0.1 μM Test Compound” value is given as “*** (greater than 20% Gcase activation)” and the “Percent Gcase Activation, 1 μM Test Compound” value is “+++ (Gcase activation greater than 60%)”.

For the molecule `Cc1cc(-c2ccon2)nc2c(C(=O)N[C@@H](C3CC3)C(F)(F)F)cnn12` [III-241], the “Percent Gcase Activation, 0.1 μM Test Compound” value is listed as “*** (greater than 20% Gcase activation)” and the “Percent Gcase Activation, 1 μM Test Compound” value is “+++ (Gcase activation greater than 60%)”.

With `Cc1oc(C#N)cc1-c1cc(C)n2ncc(C(=O)NC(C3CC3)C(F)(F)F)c2n1` (centres unmarked) [III-242], the “Percent Gcase Activation, 0.1 μM Test Compound” value is reported as “*** (greater than 20% Gcase activation)” and the “Percent Gcase Activation, 1 μM Test Compound” value is reported as “+++ (Gcase activation greater than 60%)”.

With `Cc1oc(C#N)cc1-c1cc(C)n2ncc(C(=O)N[C@H](C3CC3)C(F)(F)F)c2n1` [III-243], the “Percent Gcase Activation, 0.1 μM Test Compound” value is recorded as “*** (greater than 20% Gcase activation)” and the “Percent Gcase Activation, 1 μM Test Compound” value is listed as “+++ (Gcase activation greater than 60%)”.

As to `Cc1oc(C#N)cc1-c1cc(C)n2ncc(C(=O)N[C@@H](C3CC3)C(F)(F)F)c2n1` [III-244], the “Percent Gcase Activation, 0.1 μM Test Compound” value is listed as “*** (greater than 20% Gcase activation)” and the “Percent Gcase Activation, 1 μM Test Compound” value was “+++ (Gcase activation greater than 60%)”.

On to `Cc1cc(C#N)c(-c2cc(C)n3ncc(C(=O)NC(C4CC4)C(F)(F)F)c3n2)o1` (centres unmarked) [III-245], for which the “Percent Gcase Activation, 0.1 μM Test Compound” value is “* (less than 10% Gcase activation)” and the “Percent Gcase Activation, 1 μM Test Compound” value is given as “+ (less than 30% Gcase activation)”.

Regarding `Cc1ncc(-c2cc(C)n3ncc(C(=O)NC(C4CC4)C(F)(F)F)c3n2)o1` (centres unmarked) [III-246], the “Percent Gcase Activation, 0.1 μM Test Compound” value is reported as “** (Gcase activation in the range of 10% up to 20%)” and the “Percent Gcase Activation, 1 μM Test Compound” value is recorded as “+++ (Gcase activation greater than 60%)”.

As for `Cc1ncc(-c2cc(C)n3ncc(C(=O)N[C@H](C4CC4)C(F)(F)F)c3n2)o1` [III-247], the “Percent Gcase Activation, 0.1 μM Test Compound” value is listed as “*** (greater than 20% Gcase activation)” and the “Percent Gcase Activation, 1 μM Test Compound” value is “+++ (Gcase activation greater than 60%)”.

With `Cc1ncc(-c2cc(C)n3ncc(C(=O)N[C@@H](C4CC4)C(F)(F)F)c3n2)o1` [III-248], the “Percent Gcase Activation, 0.1 μM Test Compound” value is on record as “*** (greater than 20% Gcase activation)” and the “Percent Gcase Activation, 1 μM Test Compound” value is “+++ (Gcase activation greater than 60%)”.

Regarding `Cc1nc(-c2cc(C)n3ncc(C(=O)NC(C4CC4)C(F)(F)F)c3n2)co1` (centres unmarked) [III-249], the “Percent Gcase Activation, 0.1 μM Test Compound” value is listed as “** (Gcase activation in the range of 10% up to 20%)” and the “Percent Gcase Activation, 1 μM Test Compound” value is on record as “+++ (Gcase activation greater than 60%)”.

As for `Cc1cc(-c2occc2C#N)nc2c(C(=O)NC(C3CC3)C(F)(F)F)cnn12` (centres unmarked) [III-250], the “Percent Gcase Activation, 0.1 μM Test Compound” value is “*** (greater than 20% Gcase activation)” and the “Percent Gcase Activation, 1 μM Test Compound” value is recorded as “+++ (Gcase activation greater than 60%)”.

`Cc1nc(-c2cc(C)n3ncc(C(=O)NC(C)(C)C4CC4)c3n2)co1` [III-251]: the “Percent Gcase Activation, 0.1 μM Test Compound” value is “** (Gcase activation in the range of 10% up to 20%)” and the “Percent Gcase Activation, 1 μM Test Compound” value was “+++ (Gcase activation greater than 60%)”.

As for `Cc1ncc(-c2cc(C)n3ncc(C(=O)NC(C)(C)C4CC4)c3n2)o1` [III-252], the “Percent Gcase Activation, 0.1 μM Test Compound” value is “* (less than 10% Gcase activation)” and the “Percent Gcase Activation, 1 μM Test Compound” value is listed as “+++ (Gcase activation greater than 60%)”.

As to `Cc1cnc(-c2cc(C)n3ncc(C(=O)NC(C4CC4)C(F)(F)F)c3n2)o1` (centres unmarked) [III-253], the “Percent Gcase Activation, 0.1 μM Test Compound” value was “*** (greater than 20% Gcase activation)” and the “Percent Gcase Activation, 1 μM Test Compound” value is “+++ (Gcase activation greater than 60%)”.

`Cc1coc(-c2cc(C)n3ncc(C(=O)NC(C4CC4)C(F)(F)F)c3n2)n1` (centres unmarked) [III-254]: the “Percent Gcase Activation, 0.1 μM Test Compound” value is recorded as “*** (greater than 20% Gcase activation)” and the “Percent Gcase Activation, 1 μM Test Compound” value is recorded as “+++ (Gcase activation greater than 60%)”.

Consider `Cc1coc(-c2cc(C)n3ncc(C(=O)N[C@H](C4CC4)C(F)(F)F)c3n2)n1` [III-255], for which the “Percent Gcase Activation, 0.1 μM Test Compound” value was “** (Gcase activation in the range of 10% up to 20%)” and the “Percent Gcase Activation, 1 μM Test Compound” value is recorded as “+++ (Gcase activation greater than 60%)”.

For `Cc1coc(-c2cc(C)n3ncc(C(=O)N[C@@H](C4CC4)C(F)(F)F)c3n2)n1` [III-256], the “Percent Gcase Activation, 0.1 μM Test Compound” value is “*** (greater than 20% Gcase activation)” and the “Percent Gcase Activation, 1 μM Test Compound” value is listed as “+++ (Gcase activation greater than 60%)”.

On to `Cc1cc(N2CCCN(C(C)C)C2=O)nc2c(C(=O)NC(C3CC3)C(F)(F)F)cnn12` (centres unmarked) [III-257], for which the “Percent Gcase Activation, 0.1 μM Test Compound” value is listed as “** (Gcase activation in the range of 10% up to 20%)” and the “Percent Gcase Activation, 1 μM Test Compound” value is “++ (Gcase activation in the range of 30% up to 60%)”.

Regarding `Cc1cc(N2CCCN(C(C)C)C2=O)nc2c(C(=O)NC(C)(C)C)cnn12` [III-258], the “Percent Gcase Activation, 0.1 μM Test Compound” value is given as “* (less than 10% Gcase activation)” and the “Percent Gcase Activation, 1 μM Test Compound” value is “+ (less than 30% Gcase activation)”.

As to `Cc1cc(N2CCCN(C(C)C)C2=O)nc2c(C(=O)NC(C)C(F)(F)F)cnn12` (centres unmarked) [III-259], the “Percent Gcase Activation, 0.1 μM Test Compound” value is on record as “* (less than 10% Gcase activation)” and the “Percent Gcase Activation, 1 μM Test Compound” value was “+ (less than 30% Gcase activation)”.

Consider `Cc1cc(N2CCCN(CC(F)(F)F)C2=O)nc2c(C(=O)NC(C3CC3)C(F)(F)F)cnn12` (centres unmarked) [III-260], for which the “Percent Gcase Activation, 0.1 μM Test Compound” value is recorded as “* (less than 10% Gcase activation)” and the “Percent Gcase Activation, 1 μM Test Compound” value is reported as “++ (Gcase activation in the range of 30% up to 60%)”.

Consider `Cc1cc(N2CCCN(C(C)C)C2=O)nc2c(C(=O)NC(C)(C)C3CC3)cnn12` [III-261], for which the “Percent Gcase Activation, 0.1 μM Test Compound” value is recorded as “* (less than 10% Gcase activation)” and the “Percent Gcase Activation, 1 μM Test Compound” value was “+ (less than 30% Gcase activation)”.

As for `Cc1cc(N2CCCN(C(C)C)C2=O)nc2c(C(=O)NC(C)(C)C(F)(F)F)cnn12` [III-262], the “Percent Gcase Activation, 0.1 μM Test Compound” value is listed as “* (less than 10% Gcase activation)” and the “Percent Gcase Activation, 1 μM Test Compound” value is reported as “+ (less than 30% Gcase activation)”.

With `COc1ccncc1-c1cc(C)n2ncc(C(=O)NC(C3CC3)C(F)(F)F)c2n1` (centres unmarked) [III-263], the “Percent Gcase Activation, 0.1 μM Test Compound” value is “* (less than 10% Gcase activation)” and the “Percent Gcase Activation, 1 μM Test Compound” value was “++ (Gcase activation in the range of 30% up to 60%)”.

With `Cc1cc(-c2ccc(F)o2)nc2c(C(=O)NC(C3CC3)C(F)(F)F)cnn12` (centres unmarked) [III-264], the “Percent Gcase Activation, 0.1 μM Test Compound” value was “*** (greater than 20% Gcase activation)” and the “Percent Gcase Activation, 1 μM Test Compound” value was “+++ (Gcase activation greater than 60%)”.

On to `COc1cncc(-c2cc(C)n3ncc(C(=O)NC(C4CC4)C(F)(F)F)c3n2)c1` (centres unmarked) [III-265], for which the “Percent Gcase Activation, 0.1 μM Test Compound” value is given as “*** (greater than 20% Gcase activation)” and the “Percent Gcase Activation, 1 μM Test Compound” value is “+++ (Gcase activation greater than 60%)”.

In the case of `COc1cncc(-c2cc(C)n3ncc(C(=O)N[C@H](C4CC4)C(F)(F)F)c3n2)c1` [III-266], the “Percent Gcase Activation, 0.1 μM Test Compound” value is recorded as “*** (greater than 20% Gcase activation)” and the “Percent Gcase Activation, 1 μM Test Compound” value is on record as “+++ (Gcase activation greater than 60%)”.

Turning to `COc1cncc(-c2cc(C)n3ncc(C(=O)N[C@@H](C4CC4)C(F)(F)F)c3n2)c1` [III-267], the “Percent Gcase Activation, 0.1 μM Test Compound” value is recorded as “*** (greater than 20% Gcase activation)” and the “Percent Gcase Activation, 1 μM Test Compound” value is “+++ (Gcase activation greater than 60%)”.

As to `COc1ccc(-c2cc(C)n3ncc(C(=O)NC(C4CC4)C(F)(F)F)c3n2)cn1` (centres unmarked) [III-268], the “Percent Gcase Activation, 0.1 μM Test Compound” value is reported as “*** (greater than 20% Gcase activation)” and the “Percent Gcase Activation, 1 μM Test Compound” value is on record as “+++ (Gcase activation greater than 60%)”.

As for `COc1ccncc1-c1cc(C)n2ncc(C(=O)NC(C)C(F)(F)F)c2n1` (centres unmarked) [III-269], the “Percent Gcase Activation, 0.1 μM Test Compound” value is listed as “* (less than 10% Gcase activation)” and the “Percent Gcase Activation, 1 μM Test Compound” value is “+ (less than 30% Gcase activation)”.

On to `COc1cncc(-c2cc(C)n3ncc(C(=O)NC(C)C(F)(F)F)c3n2)c1` (centres unmarked) [III-270], for which the “Percent Gcase Activation, 0.1 μM Test Compound” value is on record as “** (Gcase activation in the range of 10% up to 20%)” and the “Percent Gcase Activation, 1 μM Test Compound” value is “+++ (Gcase activation greater than 60%)”.
